# Reference: patent US20250064773A1, “TARGETING ERO1 ALPHA WITH AURONE DERIVATIVES” (West Virginia University Board of Governors on behalf of …, priority 2021, published 2025)
# Where two headings read alike, the source gives them in different places.
# Tests used:
# [1] = system: PC-9 ERO1α KO clones (CRISPR); experiment: MTT viability assay, PC-9 ERO1α knockout clones; assay type: cell-based; conditions: 72 hours
# Protocol: We utilized an MTT assay to determine the potency of the compounds for inhibiting cell growth. […] We next asked whether T151742 induced inhibition of cell growth was dependent on ERO1α expression. As shown in FIG. 6C two ERO1α deleted clones in the PC-9 cell line were isolated. Using an MTT assay to determine overall cellar viability, a non-targeted control (scramble), and both ERO1α knockout clones was subjected to treatment with T151742 for 72 hours (See FIG. 6D). […] Though only slight differences were observed between T151742 and EN-460 we tested the effects of these compounds in a clonogenic assay which is a better test for inhibition of self-renewal.
# Cell Lines: PC-9 cell line used was obtained from Sigma Aldrich and grown in RPMI 1640 medium with 10% fetal bovine serum and 1% penicillin/streptomycin. HCC4006, U266, MM1.s, and Beas-2B cell lines were obtained from ATCC and cultured in either RPMI 1640 or DMEM with 10% fetal bovine serum and 1% penicillin/streptomycin. All cell lines were also checked for mycoplasma every six months and subjected to short tandem repeat (STR) analysis for cell line validation. CRISPR Cas9: CRISPR Guide RNA 2 targeting ERO1α and CRISPR Guide RNA 4 were purchased from Genscript in the pLentiCRISPR V2 plasmid containing puromycin/ampicillin selection marker. Lentivirus was made from HEK 293T cells by co-transfection with GuideRNA of interest, pVSVG, and pPAX2 plasmids. Lentivirus was collected after 48 hours and concentrated using 40% PEG8000. […] Plate was then read on the BioTek Cytation 5 at 530/590 nm. […] Plate was then read at 570 nm. Treated wells were all compared to DMSO control wells to calculate percent growth inhibition and the IC50 was calculated using GraphPad (log(inhibitor) vs growth inhibition). […] Images were then quantified using ImageJ. […] Cells were aliquoted at 1 million cells per PCR tube in PBS and heated in Bio-Rad T100 thermal cycler at indicated temperatures (RT, 46° C., 48° C., 50° C., 52° C., 54° C., 56°, 58° C., and 60° C.) for 3 minutes and aggregation temperature was determined by western blot analysis. […]
# MAO-A = target: T1, MAO-A (Homo sapiens, UniProt P21397); conditions: cited from earlier work
# T1 sequence (P21397 1-527): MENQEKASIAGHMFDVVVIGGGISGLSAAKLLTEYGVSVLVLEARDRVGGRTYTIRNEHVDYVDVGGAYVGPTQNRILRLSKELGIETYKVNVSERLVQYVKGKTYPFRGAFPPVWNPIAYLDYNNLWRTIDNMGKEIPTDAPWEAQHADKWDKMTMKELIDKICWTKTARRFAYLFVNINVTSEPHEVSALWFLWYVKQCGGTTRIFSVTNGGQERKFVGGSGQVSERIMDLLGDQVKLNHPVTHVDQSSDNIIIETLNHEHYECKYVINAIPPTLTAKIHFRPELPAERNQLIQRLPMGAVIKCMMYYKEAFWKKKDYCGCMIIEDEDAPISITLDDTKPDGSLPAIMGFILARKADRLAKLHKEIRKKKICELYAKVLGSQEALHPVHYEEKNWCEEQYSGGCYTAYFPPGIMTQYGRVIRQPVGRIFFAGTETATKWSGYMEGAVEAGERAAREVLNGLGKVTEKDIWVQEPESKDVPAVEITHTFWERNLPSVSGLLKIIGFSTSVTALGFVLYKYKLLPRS
structure (smiles),measurement,setting,value
CN(C)c1ccc(/C=C2\Oc3cc(O)ccc3C2=O)cc1 [Compound T151742],IC50,"[1]; read-out: IC50, MTT assay, PC-9 ERO1α KO Clone 1",32.2 ± 1.09 µM
same,IC50,"[1]; read-out: IC50, MTT assay, PC-9 ERO1α KO Clone 2",41.5 ± 1.08 µM
same,"fold more resistant, ERO1α deleted cells compared to the control cell line",[1]; MTT,2-3 fold
same,inhibition of / activity against MAO-A,MAO-A,showed activity
